Measured values reported in publication PMC9482650, “Quantitative fragmentomics allow affinity mapping of interactomes” (Nature Communications, 2022).
Ends that are not written are not given here. * marks the point of attachment. Biotin = O=C1N[C@H]2[C@H](CS[C@H]2CCCCC(=O)*)N1; ttds = NCCCOCCOCCOCCCNC(=O)CCC(=O)*

Legend:
HeLa cell extract preys = assay: PBM-AP-MS, PBM peptide baits; format: binding, human
Experimental: (§1) HEK293T and HeLa cells were authenticated and found 100% identity to ATCC cat. CRL-3216 and ATCC cat. CCL-2, respectively. Jurkat and HaCat cell lines were not authenticated (original source: ECACC and Deutsches Krebsforschungszentrum DKFZ, respectively). HeLa cells were grown in DMEM (1 g/L glucose, Gibco) medium completed with 5% FCS and 40 μg/mL gentamicin, diluted every 3rd/4th day 1/10. HaCat cells were grown in DMEM (1 g/L glucose, Gibco) medium completed with 10% FCS and 40 μg/mL gentamicin, diluted every 3rd/4th day 1/4. Jurkat cells were grown in RPMI (Gibco) medium completed with 10% FCS and 40 μg/mL gentamicin, diluted every 3rd/4th day 1/12. All cells were kept at 37 °C and 5% CO2. For proteomics analyses cells were seeded on T-175 flasks. After they reached confluency, adherent cells were washed with PBS once and collected by scraping with ice-cold lysis buffer (Hepes-KOH pH 7.5 50 mM, NaCl 150 mM, Triton X-100 1%, complete EDTA-free protease inhibitor cocktail 1×, EDTA 2 mM, TCEP 5 mM, glycerol 10%). Jurkat cells were collected by 1000 g × centrifugation, washed once with PBS, then collected by 1000 g × 5 min centrifugation again and lysed in ice-cold lysis buffer. Lysates were sonicated 4 × 20 s with 1 s long pulses on ice, then incubated rotating at 4 °C for 30 min. Lysates were centrifuged at 12,000 rpm 4 °C for 20 min and supernatant was kept for further analysis. Concentration determination was carried out by standard Bradford method (Bio-Rad Protein Assay Dye Reagent #5000006) using BSA (MP BIomedicals #160069) as control on a Bio-Rad SmartSpec 3000 spectrophotometer instrument.
(§2) For PBM-AP-MS experiments, 30 μl streptavidin resin was mixed with biotin or peptide at 50–60 μM concentration in 6–6.5 resin volume for 60 min to achieve resin saturation. For PDZ-AP-MS experiments, 30 μl streptavidin resin was mixed with biotinylated MBP or MBP-PDZ at 40-50 μM concentration in >1000× resin volume for 60 min to achieve resin saturation. After saturation, resins were washed a single time (ten resin volume, holdup buffer), and were depleted with biotin (1 mM biotin, 5–10 resin volume, 10 min). Finally, resins were washed two times. 0.5 ml 2 mg/ml cell lysate was added to the dry resin (1 mg total input) and were incubated at 4 °C for 2 h. Then, the beads were washed three times with 10 resin volume buffer containing: 50 mM TRIS pH 8.5, 150 mM NaCl, 1% TritonX-100, 10× complete EDTA-free protease inhibitor cocktail, 2 mM EDTA, 1 mM TCEP. Then, the beads were washed two times with ten resin volume buffer containing: 50 mM TRIS pH 8.5, 150 mM NaCl, 1 mM TCEP. Finally, captured protein was eluted from the resin in two steps and the eluted fractions were pooled. For each elution the beads were incubated for 30 min with three resin volume buffer containing: 20 mM TRIS pH8.5, 100 mM NaCl, 500 μM TCEP, 8 M Urea. Between each step, the beads were separated by mild centrifugation and the supernatant was removed by gentle pipetting.
(§3) The samples were precipitated with TCA 20% overnight at 4 °C and centrifuged at 14,000 rpm for 10 min at 4 °C. The protein pellets were washed twice with 1 mL cold acetone and air dried. The protein extracts were solubilized in urea 8 M, reduced with 5 mM TCEP for 30 min, and alkylated with 10 mM iodoacetamide for 30 min in the dark. Double digestion was performed at 37 °C with 500 ng endoproteinase Lys-C for 4 h, followed by fourfold dilution and an overnight digestion with 500 ng trypsin. Peptide mixtures were then desalted on C18 spin-column and dried on Speed-Vacuum.
(§4) Samples were analyzed using an Ultimate 3000 nano-RSLC (Thermo Scientific, San Jose California) coupled in line with a LTQ-Orbitrap ELITE mass spectrometer via a nano-electrospray ionization source (Thermo Scientific, San Jose California). […]

[1] = tested on: Jurkat cell extract preys; assay: PBM-AP-MS, PBM peptide baits; format: binding, human
Experimental: as §1, §2, §3, §4

## HPV18E6
HeLa cell extract preys; prey AHNAK, PBM peptide bait
  Enrichment values compared to biotin controls: 0.9
HeLa cell extract preys; prey ARHGAP21, PBM peptide bait
  Enrichment values compared to biotin controls: 1.1
HeLa cell extract preys; prey ARHGEF12, PBM peptide bait
  Enrichment values compared to biotin controls: 1.0
HeLa cell extract preys; prey CASK, PBM peptide bait
  Enrichment values compared to biotin controls: 5.3
HeLa cell extract preys; prey DLG1, PBM peptide bait
  Enrichment values compared to biotin controls: 6.5
HeLa cell extract preys; prey DLG3, PBM peptide bait
  Enrichment values compared to biotin controls: 5.8
HeLa cell extract preys; prey DLG5, PBM peptide bait
  Enrichment values compared to biotin controls: 1.4
HeLa cell extract preys; prey DVL2, PBM peptide bait
  Enrichment values compared to biotin controls: 1.0
HeLa cell extract preys; prey GOPC, PBM peptide bait
  Enrichment values compared to biotin controls: 2.8
HeLa cell extract preys; prey HTRA1, PBM peptide bait
  Enrichment values compared to biotin controls: 2.4
HeLa cell extract preys; prey InaDl, PBM peptide bait
  Enrichment values compared to biotin controls: 3.6
HeLa cell extract preys; prey LAP2, PBM peptide bait
  Enrichment values compared to biotin controls: 1.8
HeLa cell extract preys; prey LIN7C, PBM peptide bait
  Enrichment values compared to biotin controls: 285.6
HeLa cell extract preys; prey LMO7, PBM peptide bait
  Enrichment values compared to biotin controls: 1.9
HeLa cell extract preys; prey MPDZ, PBM peptide bait
  Enrichment values compared to biotin controls: 3.2
HeLa cell extract preys; prey MPP5, PBM peptide bait
  Enrichment values compared to biotin controls: 60.3
HeLa cell extract preys; prey MPP6, PBM peptide bait
  Enrichment values compared to biotin controls: 3.7
HeLa cell extract preys; prey MPP7, PBM peptide bait
  Enrichment values compared to biotin controls: 14.5
HeLa cell extract preys; prey NHERF2, PBM peptide bait
  Enrichment values compared to biotin controls: 0.843
HeLa cell extract preys; prey NHERF3, PBM peptide bait
  Enrichment values compared to biotin controls: 0.8
HeLa cell extract preys; prey PDLIM5, PBM peptide bait
  Enrichment values compared to biotin controls: 0.9
HeLa cell extract preys; prey PDLIM7, PBM peptide bait
  Enrichment values compared to biotin controls: 0.8
HeLa cell extract preys; prey PSMD9, PBM peptide bait
  Enrichment values compared to biotin controls: 0.8
HeLa cell extract preys; prey SCRIB, PBM peptide bait
  Enrichment values compared to biotin controls: 215.8
HeLa cell extract preys; prey SIPA1L1, PBM peptide bait
  Enrichment values compared to biotin controls: 0.9
HeLa cell extract preys; prey SNTA1, PBM peptide bait
  Enrichment values compared to biotin controls: 1.2
HeLa cell extract preys; prey SNTB1, PBM peptide bait
  Enrichment values compared to biotin controls: 18.1
HeLa cell extract preys; prey SNTB2, PBM peptide bait
  Enrichment values compared to biotin controls: 76.9
HeLa cell extract preys; prey SNX27, PBM peptide bait
  Enrichment values compared to biotin controls: 12.8
HeLa cell extract preys; prey SYNJ2BP, PBM peptide bait
  Enrichment values compared to biotin controls: 49.1
HeLa cell extract preys; prey TJP1, PBM peptide bait
  Enrichment values compared to biotin controls: 1.7
HeLa cell extract preys; prey TX1B3, PBM peptide bait
  Enrichment values compared to biotin controls: 30.0
[1]; prey APBA1, PBM peptide bait
  Enrichment values compared to biotin controls: 5.1
[1]; prey DLG4, PBM peptide bait
  Enrichment values compared to biotin controls: 3.2
[1]; prey DVL2, PBM peptide bait
  Enrichment values compared to biotin controls: 1.0
[1]; prey GOPC, PBM peptide bait
  Enrichment values compared to biotin controls: 15.5
[1]; prey InaDl, PBM peptide bait
  Enrichment values compared to biotin controls: 0.8
[1]; prey LAP2, PBM peptide bait
  Enrichment values compared to biotin controls: 2.3
[1]; prey LNX2, PBM peptide bait
  Enrichment values compared to biotin controls: 1.0
[1]; prey MAGI3, PBM peptide bait
  Enrichment values compared to biotin controls: 5.4
[1]; prey MPP1, PBM peptide bait
  Enrichment values compared to biotin controls: 0.547
[1]; prey MPP5, PBM peptide bait
  Enrichment values compared to biotin controls: 3.3
[1]; prey MPP6, PBM peptide bait
  Enrichment values compared to biotin controls: 2.5
[1]; prey MPP7, PBM peptide bait
  Enrichment values compared to biotin controls: 4.4
[1]; prey MYO18A, PBM peptide bait
  Enrichment values compared to biotin controls: 0.4
[1]; prey PDLIM2, PBM peptide bait
  Enrichment values compared to biotin controls: 1.5
[1]; prey PDLIM5, PBM peptide bait
  Enrichment values compared to biotin controls: 0.8
[1]; prey PDLIM7, PBM peptide bait
  Enrichment values compared to biotin controls: 1.1
[1]; prey PDZD11, PBM peptide bait
  Enrichment values compared to biotin controls: 1.0
[1]; prey PSMD9, PBM peptide bait
  Enrichment values compared to biotin controls: 0.8
[1]; prey SIPA1L1, PBM peptide bait
  Enrichment values compared to biotin controls: 1.2
[1]; prey SIPA1L2, PBM peptide bait
  Enrichment values compared to biotin controls: 1.1
[1]; prey SNTB1, PBM peptide bait
  Enrichment values compared to biotin controls: 6.6
[1]; prey SNTB2, PBM peptide bait
  Enrichment values compared to biotin controls: 1.1
[1]; prey SNX27, PBM peptide bait
  Enrichment values compared to biotin controls: 16.6
[1]; prey SYNJ2BP, PBM peptide bait
  Enrichment values compared to biotin controls: 14.2
[1]; prey TX1B3, PBM peptide bait
  Enrichment values compared to biotin controls: 7.1

## HPV30E6 ({Biotin-ttds}-RHTTSTETAV)
HeLa cell extract preys; prey AHNAK, PBM peptide bait
  Enrichment values compared to biotin controls: 1.1
HeLa cell extract preys; prey CASK, PBM peptide bait
  Enrichment values compared to biotin controls: 20.8
HeLa cell extract preys; prey DLG1, PBM peptide bait
  Enrichment values compared to biotin controls: 6.0
HeLa cell extract preys; prey DLG5, PBM peptide bait
  Enrichment values compared to biotin controls: 0.7
HeLa cell extract preys; prey DVL2, PBM peptide bait
  Enrichment values compared to biotin controls: 0.7
HeLa cell extract preys; prey HTRA1, PBM peptide bait
  Enrichment values compared to biotin controls: 1.3
HeLa cell extract preys; prey InaDl, PBM peptide bait
  Enrichment values compared to biotin controls: 0.8
HeLa cell extract preys; prey LAP2, PBM peptide bait
  Enrichment values compared to biotin controls: 1.5
HeLa cell extract preys; prey LIN7C, PBM peptide bait
  Enrichment values compared to biotin controls: 110.0
HeLa cell extract preys; prey LMO7, PBM peptide bait
  Enrichment values compared to biotin controls: 0.8
HeLa cell extract preys; prey LNX2, PBM peptide bait
  Enrichment values compared to biotin controls: 1.0
HeLa cell extract preys; prey MPDZ, PBM peptide bait
  Enrichment values compared to biotin controls: 1.6
HeLa cell extract preys; prey MPP5, PBM peptide bait
  Enrichment values compared to biotin controls: 4.5
HeLa cell extract preys; prey MPP7, PBM peptide bait
  Enrichment values compared to biotin controls: 9.1
HeLa cell extract preys; prey PDLIM5, PBM peptide bait
  Enrichment values compared to biotin controls: 0.9
HeLa cell extract preys; prey PDLIM7, PBM peptide bait
  Enrichment values compared to biotin controls: 0.9
HeLa cell extract preys; prey PSMD9, PBM peptide bait
  Enrichment values compared to biotin controls: 0.7
HeLa cell extract preys; prey SCRIB, PBM peptide bait
  Enrichment values compared to biotin controls: 155.6
HeLa cell extract preys; prey SDCBP, PBM peptide bait
  Enrichment values compared to biotin controls: 1.3
HeLa cell extract preys; prey SIPA1L1, PBM peptide bait
  Enrichment values compared to biotin controls: 0.5
HeLa cell extract preys; prey SNTB1, PBM peptide bait
  Enrichment values compared to biotin controls: 6.5
HeLa cell extract preys; prey SNTB2, PBM peptide bait
  Enrichment values compared to biotin controls: 1.1
HeLa cell extract preys; prey SNX27, PBM peptide bait
  Enrichment values compared to biotin controls: 1.4
HeLa cell extract preys; prey SYNJ2BP, PBM peptide bait
  Enrichment values compared to biotin controls: 15.4
  Fold changes HeLa, SYNJ2BP: 15.4
HeLa cell extract preys; prey TJP1, PBM peptide bait
  Enrichment values compared to biotin controls: 0.7
[1]; prey APBA1, PBM peptide bait
  Enrichment values compared to biotin controls: 2.1
[1]; prey DLG4, PBM peptide bait
  Enrichment values compared to biotin controls: 4.1
[1]; prey DVL2, PBM peptide bait
  Enrichment values compared to biotin controls: 0.9
[1]; prey GOPC, PBM peptide bait
  Enrichment values compared to biotin controls: 1.2
[1]; prey InaDl, PBM peptide bait
  Enrichment values compared to biotin controls: 0.6
[1]; prey LAP2, PBM peptide bait
  Enrichment values compared to biotin controls: 2.7
[1]; prey LNX2, PBM peptide bait
  Enrichment values compared to biotin controls: 0.543
[1]; prey MAGI3, PBM peptide bait
  Enrichment values compared to biotin controls: 2.1
[1]; prey MPP1, PBM peptide bait
  Enrichment values compared to biotin controls: 1.4
[1]; prey MPP5, PBM peptide bait
  Enrichment values compared to biotin controls: 1.1
[1]; prey MPP6, PBM peptide bait
  Enrichment values compared to biotin controls: 1.2
[1]; prey MPP7, PBM peptide bait
  Enrichment values compared to biotin controls: 2.8
[1]; prey MYO18A, PBM peptide bait
  Enrichment values compared to biotin controls: 1.1
[1]; prey PDLIM2, PBM peptide bait
  Enrichment values compared to biotin controls: 1.5
[1]; prey PDLIM5, PBM peptide bait
  Enrichment values compared to biotin controls: 0.9
[1]; prey PDLIM7, PBM peptide bait
  Enrichment values compared to biotin controls: 1.1
[1]; prey PDZD11, PBM peptide bait
  Enrichment values compared to biotin controls: 3.0
[1]; prey PSMD9, PBM peptide bait
  Enrichment values compared to biotin controls: 0.7
[1]; prey SIPA1L1, PBM peptide bait
  Enrichment values compared to biotin controls: 1.1
[1]; prey SIPA1L2, PBM peptide bait
  Enrichment values compared to biotin controls: 0.65
[1]; prey SNTB1, PBM peptide bait
  Enrichment values compared to biotin controls: 3.6
[1]; prey SNTB2, PBM peptide bait
  Enrichment values compared to biotin controls: 1.0
[1]; prey SNX27, PBM peptide bait
  Enrichment values compared to biotin controls: 14.6
[1]; prey SYNJ2BP, PBM peptide bait
  Enrichment values compared to biotin controls: 1.5
[1]; prey TX1B3, PBM peptide bait
  Enrichment values compared to biotin controls: 1.2
